Reference: ChEMBL document CHEMBL1201862, “PubChem BioAssay data set” (2004)
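Step 1: Grow cells in 96-well plates. Step 2: Expose to compound for 48 hours at 5 concentrations. Step 3: Interpolate endpoints linearly; if unreached, use highest concentration. Abbreviation: GI50, concentration required for 50% inhibition of growth.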 Calls of active or inactive are those of the source. No stated cut-off is given here; in the data, active = GI50 up to about 1.1 µM and inactive = higher.

What was measured:
Assay in all cases: inhibition of tumour cell growth, NCI panel, 48 h
Malme-3M = test system: Malme-3M
CAKI-1 = test system: CAKI-1
HOP-62 = test system: HOP-62
BT-549 = test system: BT-549
MDA-MB-435 = test system: MDA-MB-435
KM12 = test system: KM12
COLO 205 = test system: COLO 205
SK-OV-3 = test system: SK-OV-3
SK-MEL-5 = test system: SK-MEL-5
K562 = test system: K562
HT-29 = test system: HT-29
PC-3 = test system: PC-3
UACC-62 = test system: UACC-62
MCF7 = test system: MCF7
RXF 393 = test system: RXF 393
HCT-15 = test system: HCT-15
SNB-75 = test system: SNB-75
SR = test system: SR
UO-31 = test system: UO-31
EKVX = test system: EKVX

| SMILES | GI50 (Malme-3M) | GI50 (CAKI-1) | GI50 (HOP-62) | GI50 (BT-549) | GI50 (MDA-MB-435) | GI50 (KM12) | GI50 (COLO 205) | GI50 (SK-OV-3) | GI50 (SK-MEL-5) | GI50 (K562) | GI50 (HT-29) | GI50 (PC-3) | GI50 (UACC-62) | GI50 (MCF7) | GI50 (RXF 393) | GI50 (HCT-15) | GI50 (SNB-75) | GI50 (SR) | GI50 (UO-31) | GI50 (EKVX) |
| --- | --- | --- | --- | --- | --- | --- | --- | --- | --- | --- | --- | --- | --- | --- | --- | --- | --- | --- | --- | --- |
| O=C1CC(=O)NC(NNS(=O)(=O)c2ccc(Cl)cc2)=N1 | > 100 µM (inactive) | > 100 µM (inactive) | > 100 µM (inactive) | > 100 µM (inactive) | > 100 µM (inactive) | > 100 µM (inactive) | > 100 µM (inactive) | 58.5 µM (inactive) | > 100 µM (inactive) | > 100 µM (inactive) | > 100 µM (inactive) | > 100 µM (inactive) | > 100 µM (inactive) | > 100 µM (inactive) | > 100 µM (inactive) | > 100 µM | > 100 µM (inactive) | > 100 µM (inactive) | > 100 µM (inactive) |  |
| COC(=O)C1Cc2cc3c(cc2C1=O)CCC3 (stereo not drawn) | > 100 µM (inactive) | > 100 µM (inactive) | > 100 µM (inactive) | > 100 µM (inactive) | > 100 µM (inactive) | > 100 µM (inactive) | > 100 µM (inactive) | > 100 µM (inactive) | > 100 µM (inactive) | 43 µM (inactive) | > 100 µM (inactive) | > 100 µM (inactive) | > 100 µM (inactive) | > 100 µM (inactive) |  | > 100 µM | > 100 µM (inactive) | > 100 µM (inactive) | > 100 µM (inactive) | > 100 µM (inactive) |
| CC(C)(C)OC(=O)NCC(O)CNC(=O)OC(C)(C)C | > 100 µM (inactive) | > 100 µM (inactive) | > 100 µM (inactive) | > 100 µM (inactive) | > 100 µM (inactive) | > 100 µM (inactive) | > 100 µM (inactive) | > 100 µM (inactive) | > 100 µM (inactive) | > 100 µM (inactive) |  | > 100 µM (inactive) | > 100 µM (inactive) | > 100 µM (inactive) | > 100 µM (inactive) | > 100 µM |  | > 100 µM (inactive) | > 100 µM (inactive) | > 100 µM (inactive) |
| CCN1C(NCCO)=NS(=O)(=O)c2ccccc21 |  | > 100 µM (inactive) | > 100 µM (inactive) | > 100 µM (inactive) | > 100 µM (inactive) | > 100 µM (inactive) | > 100 µM (inactive) | > 100 µM (inactive) | > 100 µM (inactive) | > 100 µM (inactive) | > 100 µM (inactive) | > 100 µM (inactive) | > 100 µM (inactive) | > 100 µM (inactive) | > 100 µM (inactive) | > 100 µM |  | > 100 µM (inactive) | > 100 µM (inactive) | > 100 µM (inactive) |
| CCOc1ccc(C(=O)/C=C2/Nc3ccccc3N/C2=C/C(=O)c2ccc(OCC)cc2)cc1 | 41.7 µM (inactive) | > 100 µM (inactive) | > 100 µM (inactive) | > 100 µM (inactive) | > 100 µM (inactive) |  | > 100 µM (inactive) | > 100 µM (inactive) | > 100 µM (inactive) | > 100 µM (inactive) | > 100 µM (inactive) | > 100 µM (inactive) | > 100 µM (inactive) | > 100 µM (inactive) | > 100 µM (inactive) | 96.4 µM |  | 3.43 µM (inactive) | > 100 µM (inactive) | > 100 µM (inactive) |
| N#C/C(N)=C(\C#N)NC(=O)C(=O)N/C(C#N)=C(\N)C#N | 59.6 µM (inactive) | > 100 µM (inactive) | > 100 µM (inactive) | > 100 µM (inactive) | > 100 µM (inactive) | > 100 µM (inactive) | > 100 µM (inactive) |  | > 100 µM (inactive) | > 100 µM (inactive) | > 100 µM (inactive) | > 100 µM (inactive) | > 100 µM (inactive) | > 100 µM (inactive) | 9.38 µM (inactive) | > 100 µM | 29.3 µM (inactive) | 58.2 µM (inactive) | > 100 µM (inactive) | > 100 µM (inactive) |
| NCCCCC(NC(=O)C(N)Cc1ccc(O)cn1)C(=O)O (stereo not drawn) | > 100 µM (inactive) | > 100 µM (inactive) | > 100 µM (inactive) | > 100 µM (inactive) | > 100 µM (inactive) | > 100 µM (inactive) | > 100 µM (inactive) |  | > 100 µM (inactive) | > 100 µM (inactive) | > 100 µM (inactive) | > 100 µM (inactive) |  | > 100 µM (inactive) | > 100 µM (inactive) | > 100 µM |  | > 100 µM (inactive) | > 100 µM (inactive) | > 100 µM (inactive) |
| CC(CC(=O)N1C2CC3CCC2(CS1(=O)=O)C3(C)C)[Si](C)(C)C (stereo not drawn) | > 100 µM (inactive) | > 100 µM (inactive) | > 100 µM (inactive) | > 100 µM (inactive) | > 100 µM (inactive) | > 100 µM (inactive) | > 100 µM (inactive) |  | > 100 µM (inactive) | > 100 µM (inactive) | > 100 µM (inactive) | 61.5 µM (inactive) |  | > 100 µM (inactive) | > 100 µM (inactive) | > 100 µM | > 100 µM (inactive) | > 100 µM (inactive) | > 100 µM (inactive) | > 100 µM (inactive) |
| C=C1C(C[C@@H]2O[C@H]3C[C@H]4O[C@@]5(C[C@@H]6O[C@]7(C[C@H](C)[C@@H]8O[C@@H]9CC(C(O)CO)O[C@@H]9C[C@@H]8O7)C[C@H](C)[C@@H]6O5)C[C@H]4O[C@H]3[C@H](C)[C@H]2O)O[C@@H](CC[C@@H]2O[C@@H](CC[C@@]34CC5O[C@H]6C(O[C@H]7CC[C@H](CC(=O)OC)O[C@@H]7[C@@H]6O3)[C@H]5O4)CC2=C)C[C@H]1C (stereo partly drawn) |  | 0.000286 µM (active) | 0.000396 µM (active) | < 0.0001 µM (active) | < 0.0001 µM (active) | < 0.0001 µM (active) | < 0.0001 µM (active) | 0.000243 µM (active) | < 0.0001 µM (active) | < 0.0001 µM (active) |  | < 0.0001 µM (active) | < 0.0001 µM (active) | < 0.0001 µM (active) | < 0.0001 µM (active) | 0.000258 µM | 0.000154 µM (active) | < 0.0001 µM (active) | 0.000904 µM (active) | 0.000405 µM (active) |
| CC(=O)Nc1cc(Nc2cc(O)nc(O)n2)ccc1C | > 100 µM (inactive) |  | > 100 µM (inactive) | > 100 µM (inactive) | > 100 µM (inactive) | > 100 µM (inactive) | > 100 µM (inactive) |  | > 100 µM (inactive) | > 100 µM (inactive) |  | > 100 µM (inactive) |  | > 100 µM (inactive) | > 100 µM (inactive) | > 100 µM | > 100 µM (inactive) | > 100 µM (inactive) | > 100 µM (inactive) | > 100 µM (inactive) |
| O=C1Nc2ccc(Br)cc2/C1=N/NC(=S)Nc1ccc(F)cc1 | 4.95 µM (inactive) | 2.12 µM (inactive) | 8.07 µM (inactive) | 0.395 µM (active) | 2.4 µM (inactive) | 5.11 µM (inactive) | 4.02 µM (inactive) | 13.2 µM (inactive) | 3.67 µM (inactive) | 3.61 µM (inactive) | 5.38 µM (inactive) | 5.27 µM (inactive) | 2.56 µM (inactive) | 3.43 µM (inactive) | 1.76 µM (inactive) | 1.37 µM | 11.1 µM (inactive) | 1.71 µM (inactive) |  |  |
